Paper PMC8151276, “An Integrated Approach toward NanoBRET Tracers for Analysis of GPCR Ligand Engagement” (Molecules, 2021)

Legend:
FZD6 = molecular target: T1, FZD6 (Homo sapiens, UniProt O60353); experiment: NanoBRET screen HiBiT-FZD6 in HEK293; format: binding
T1 construct: purchased Promega (in-house HiBiT-GPCR construct library, NanoBRET)
T1 sequence (O60353 19-706): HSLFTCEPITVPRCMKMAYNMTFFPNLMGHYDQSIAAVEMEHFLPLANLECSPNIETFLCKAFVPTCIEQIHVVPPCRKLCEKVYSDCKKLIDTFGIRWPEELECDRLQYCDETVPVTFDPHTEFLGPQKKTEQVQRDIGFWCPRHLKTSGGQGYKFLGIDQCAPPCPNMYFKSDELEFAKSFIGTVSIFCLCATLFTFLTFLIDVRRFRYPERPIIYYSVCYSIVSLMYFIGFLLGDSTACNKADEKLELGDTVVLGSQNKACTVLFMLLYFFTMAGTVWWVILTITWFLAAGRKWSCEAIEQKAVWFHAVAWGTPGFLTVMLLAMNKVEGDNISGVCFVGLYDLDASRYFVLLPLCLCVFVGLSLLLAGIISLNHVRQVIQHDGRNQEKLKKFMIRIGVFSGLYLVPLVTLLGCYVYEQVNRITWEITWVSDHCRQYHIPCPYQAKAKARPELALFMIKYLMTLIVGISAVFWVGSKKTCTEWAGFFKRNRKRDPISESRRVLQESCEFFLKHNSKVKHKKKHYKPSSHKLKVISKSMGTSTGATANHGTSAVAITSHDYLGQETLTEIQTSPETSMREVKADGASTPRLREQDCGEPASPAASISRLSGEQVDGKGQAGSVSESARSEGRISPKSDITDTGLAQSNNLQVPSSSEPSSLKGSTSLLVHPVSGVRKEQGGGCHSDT
Experimental: (§1) Each tracer candidate was screened across the entire library of HiBiT-GPCR constructs using NanoBRET as the detection modality. As depicted in Figure 4A, the specificity of interactions was evaluated through decrease in BRET due to competitive displacement of a bound tracer by excess parental compound. Each tracer was analyzed for binding to each HiBiT-GPCR fusion in the absence and in the presence of competing parental compound. Briefly, HEK293 cells were transfected with HiBiT-GPCR constructs diluted into promoterless DNA to reduce expression and maximize translocation to the cell surface. Each tracer candidate was then screened at concentrations of 1 μM and 0.1 μM across cells expressing these fusions. Cells were treated for 1.5 h with tracer either alone or in the presence of 20 μM competing parental compound (i.e., control). BRET was measured upon addition of purified LgBiT and subsequent complementation with HiBiT genetically fused to a GPCR. The specificity of interactions was assessed through a decrease in BRET signal due to competitive displacement of the bound tracer. To further gauge the robustness of these interactions, the fold response over the control (i.e., BRETtracer/BRETcontrol) was calculated. We chose a 1.5-fold response, which translates to ≥7-fold signal over noise as the minimal threshold required to score an interaction as positive. […]. Below we highlight the screening results obtained for our exemplary fluorescent tracers based on Clozapine, Amitriptyline and AZD1283.
(§2) HiBiT-GPCR DNA constructs were diluted in 10 mM Tris pH 8 to a final concentration of 0.01 μg/μL, arrayed in 96-well plates and stored at −20 °C. For transfection, HEK293 cells were suspended in Opti-MEM (without phenol red) supplemented with 2% fetal bovine serum (Seradigm) and 100 units/mL penicillin–streptomycin (Gibco) at a final concentration of 220,000 cells/mL and dispensed into white 96-well plates at 90 μL/well. Subsequent transfections and screens were carried using an Agilent Bravo Automated Liquid Handling Platform. First, the 96-well HiBiT DNA arrays were diluted 25-fold in Opti-MEM (without serum or phenol red) to a final concentration of 0.0004 μg/μL and 20 μL of the diluted DNAs were transferred into new 96-well plates. Next, promoterless carrier DNA (1 μg/μL) was diluted 25-fold (0.04 μg/μL) and then dispensed into the diluted arrays at 20 μL/well. Following brief mixing, Viafect transfection reagent (Promega) diluted 16-fold into Opti-MEM was dispensed into the plates at 40 μL/well. After mixing by pipetting, plates were incubated for 10 min on the pipetting station deck. The DNA-transfection reagent complexes were then added to plates containing cells. To facilitate the screen, 10 μL of DNA-transfection reagent complexes were added in duplicates to the top 4 and bottom 4 rows, resulting in two identical 48-well arrays per plate. Plates with transfected cells were incubated for 18–20 h at 37 °C/5% CO2. A screen of each tracer across the entire library using two different concentrations requires duplicate plates of transfected cells. Depending on the number of tracers being screened, transfections can be scaled up using the same ratios. The next day, for each tracer, four 20× screening solutions in tracer dilution buffer (Promega) were prepared: two duplicates at final concentration of 20 μM and two duplicates at a final concentration of 2 μM. A competing unmodified compound was added to one of each duplicate at a final concentration of 400 μM. The four resulting solutions were diluted 4-fold in Opti-MEM without serum or phenol red to generate 5× solutions (5 µM and 0.5 µM tracer +/− 100 μM competing compound). To screen the library, a BioTek MultiFlo FX liquid dispenser was used to dispense 22.5 µL of tracer solution to the top 4 rows and 22.5 µL tracer + competing compound solution to the 4 bottom rows. Plates were briefly mixed on an orbital shaker and incubated for 1.5 h at room temperature. […]

GALR3 = molecular target: T2, GALR3 (Homo sapiens, UniProt O60755); experiment: NanoBRET screen HiBiT-GALR3 in HEK293; format: binding
T2 construct: purchased Promega (in-house HiBiT-GPCR construct library, NanoBRET)
T2 sequence (O60755 1-368): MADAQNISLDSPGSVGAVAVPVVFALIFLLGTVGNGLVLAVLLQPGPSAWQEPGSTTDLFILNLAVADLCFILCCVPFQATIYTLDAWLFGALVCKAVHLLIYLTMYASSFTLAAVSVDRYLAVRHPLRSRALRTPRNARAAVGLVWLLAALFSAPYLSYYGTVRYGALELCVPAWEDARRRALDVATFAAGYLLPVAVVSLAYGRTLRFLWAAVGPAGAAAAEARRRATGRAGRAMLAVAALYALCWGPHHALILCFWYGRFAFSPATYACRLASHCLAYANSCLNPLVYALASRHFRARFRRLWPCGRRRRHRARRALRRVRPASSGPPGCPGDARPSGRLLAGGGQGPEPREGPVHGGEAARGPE
Experimental: as §1, §2

[1] = tracer at 0.1μM, listed as amitriptyline-b-2-NB590

CN1CCN(C2=Nc3cc(Cl)ccc3Nc3ccc(CNC(=O)CCOCCOCCOCCOCCNC(=O)CCc4ccc5n4[B-](F)(F)[N+]4=C(c6ccc[nH]6)C=CC4=C5)cc32)CC1 [Clozapine-b-2-NB590]
NanoBRET Fold Response (FZD6; FZD6, 0.1μM tracer): 1.03 | NanoBRET Fold Response (FZD6; FZD6, 1μM tracer): 1.04 | NanoBRET Fold Response (GALR3; GALR3, 0.1μM tracer): 0.93 | NanoBRET Fold Response (GALR3; GALR3, 1μM tracer): 0.91

CN(C)CCC=C1c2ccccc2CCc2ccc(C(=O)NCCNC(=O)CCOCCOCCOCCOCCNC(=O)CCc3ccc4n3[B-](F)(F)[N+]3=C(c5ccc[nH]5)C=CC3=C4)cc21 [Amitriptyline-b-2-NB590]
NanoBRET Fold Response (FZD6; [1]): 1.00 | NanoBRET Fold Response (FZD6; tracer at 1μM): 0.98 | NanoBRET Fold Response (GALR3; [1]): 1.46 | NanoBRET Fold Response (GALR3; tracer at 1μM, listed as amitriptyline-b-2-NB590): 0.95

CCOC(=O)c1cc(C#N)c(N2CCC(C(=O)NS(=O)(=O)Cc3ccccc3/C=C/C(=O)NCCNC(=O)CCc3ccc4n3[B-](F)(F)[N+]3=C(c5ccc[nH]5)C=CC3=C4)CC2)nc1C [AZD1283-1-NB590]
NanoBRET Fold Response (FZD6; FZD6, 0.1μM): 1.01 | NanoBRET Fold Response (FZD6; FZD6, 1μM): 0.35 | NanoBRET Fold Response (GALR3; GALR3, 0.1μM): 0.91 | NanoBRET Fold Response (GALR3; GALR3, 1μM): 1.00

CC(C)N(CC[C@H](c1ccccc1)c1cc(CCNC(=O)CCOCCOCCOCCOCCNC(=O)CCc2ccc3n2[B-](F)(F)[N+]2=C(c4ccc[nH]4)C=CC2=C3)ccc1O)C(C)C [Tolterodine-2-NB590]
NanoBRET Fold Response (FZD6; FZD6, tracer 0.1μM): 0.83 | NanoBRET Fold Response (FZD6; FZD6, tracer 1μM): 0.88 | NanoBRET Fold Response (GALR3; GALR3, tracer 0.1μM): 0.76 | NanoBRET Fold Response (GALR3; GALR3, tracer 1μM): 0.78

CC(C)N(CC[C@H](c1ccccc1)c1cc(CCNC(=O)c2ccc(CNC(=O)CCc3ccc4n3[B-](F)(F)[N+]3=C(c5ccc[nH]5)C=CC3=C4)cc2)ccc1O)C(C)C [Tolterodine-BZ-NB590]
NanoBRET Fold Response (FZD6; FZD6, tracer 0.1μM): 0.97 | NanoBRET Fold Response (FZD6; FZD6, tracer 1μM): 1.04 | NanoBRET Fold Response (GALR3; GALR3, tracer 0.1μM): 1.09 | NanoBRET Fold Response (GALR3; GALR3, tracer 1μM): 1.00

O=C(CCOCCOCCOCCOCCNC(=O)CCc1ccc2n1[B-](F)(F)[N+]1=C(c3ccc[nH]3)C=CC1=C2)NCCCN1CCN(C2=Nc3ccccc3Oc3ccc(Cl)cc32)CC1 [Loxapine-a-2-NB590]
NanoBRET Fold Response (FZD6; FZD6, tracer 0.1μM): 1.09 | NanoBRET Fold Response (FZD6; FZD6, tracer 1μM): 1.06 | NanoBRET Fold Response (GALR3; GALR3, tracer 0.1μM): 0.95 | NanoBRET Fold Response (GALR3; GALR3, tracer 1μM): 1.10

CN1CCN(C2=Nc3cc(Cl)ccc3N(CC(=O)NCCOCCOCCOCCOCCNC(=O)CCc3ccc4n3[B-](F)(F)[N+]3=C(c5ccc[nH]5)C=CC3=C4)c3ccccc32)CC1 [Clozapine-c-2-NB590]
NanoBRET Fold Response (FZD6; FZD6, 0.1μM tracer): 1.01 | NanoBRET Fold Response (FZD6; FZD6, 1μM tracer): 1.04 | NanoBRET Fold Response (GALR3; GALR3, 0.1μM tracer): 1.01 | NanoBRET Fold Response (GALR3; GALR3, 1μM tracer): 1.04

CN(C)CCC=C1c2ccccc2CCc2ccc(C(=O)NCCNC(=O)CCOCCOCCOCCOCCNC(=O)CCc3ccc4n3[B-](F)(F)[N+]3=C(c5ccc[nH]5)C=CC3=C4)cc21 [Amitriptyline-a-2-NB590]
NanoBRET Fold Response (FZD6; tracer at 0.1μM): 1.10 | NanoBRET Fold Response (FZD6; tracer at 1μM): 1.03 | NanoBRET Fold Response (GALR3; tracer at 0.1μM): 0.98 | NanoBRET Fold Response (GALR3; tracer at 1μM): 1.04

Cc1nc2n(c(=O)c1CCN1CCC(c3noc4cc(F)ccc34)CC1)CCCC2OC(=O)NCCOCCOCCOCCOCCNC(=O)CCc1ccc2n1[B-](F)(F)[N+]1=C(c3ccc[nH]3)C=CC1=C2 (stereo not shown) [Risperidone-2-NB590]
NanoBRET Fold Response (FZD6; FZD6, tracer 0.1μM): 1.01 | NanoBRET Fold Response (FZD6; FZD6, tracer 1μM): 1.10 | NanoBRET Fold Response (GALR3; GALR3, tracer 0.1μM): 0.90 | NanoBRET Fold Response (GALR3; GALR3, tracer 1μM): 0.94

COc1ccc2[nH]c(-c3ccc(CNC(=O)CCOCCOCCOCCOCCNC(=O)CCc4ccc5n4[B-](F)(F)[N+]4=C(c6ccc[nH]6)C=CC4=C5)cc3)c(CCNC(C)=O)c2n1 [AzomelatoninICO9-2-NB590]
NanoBRET Fold Response (FZD6; 0.1μM tracer): 1.12 | NanoBRET Fold Response (FZD6; 1μM tracer): 0.94 | NanoBRET Fold Response (GALR3; 0.1μM tracer): 1.06 | NanoBRET Fold Response (GALR3; 1μM tracer): 1.08

COc1ccccc1N1CCN(CCCCN2C(=O)c3ccc(CNC(=O)CCOCCOCCOCCOCCNC(=O)CCc4ccc5n4[B-](F)(F)[N+]4=C(c6ccc[nH]6)C=CC4=C5)cc3C2=O)CC1 [NAN-190-2-NB590]
NanoBRET Fold Response (FZD6; FZD6, tracer 0.1μM): 0.95 | NanoBRET Fold Response (FZD6; FZD6, tracer 1μM): 1.04 | NanoBRET Fold Response (GALR3; GALR3, tracer 0.1μM): 0.97 | NanoBRET Fold Response (GALR3; GALR3, tracer 1μM): 1.10

O=C(CCc1ccc2n1[B-](F)(F)[N+]1=C(c3ccc[nH]3)C=CC1=C2)NCCOCCOCCNC(=O)OCCOCCN1CCN(C2=Nc3ccccc3Sc3ccccc32)CC1 [Quetiapine-a-2-NB590]
NanoBRET Fold Response (FZD6; FZD6, tracer 0.1μM): 1.01 | NanoBRET Fold Response (FZD6; FZD6, tracer 1μM): 1.15 | NanoBRET Fold Response (GALR3; GALR3, tracer 0.1μM): 1.02 | NanoBRET Fold Response (GALR3; GALR3, tracer 1μM): 0.73

O=C(CCOCCOCCOCCOCCNC(=O)CCc1ccc2n1[B-](F)(F)[N+]1=C(c3ccc[nH]3)C=CC1=C2)NCCCN1CCN(C2=Nc3cc(Cl)ccc3Nc3ccccc32)CC1 [Clozapine-a-2-NB590]
NanoBRET Fold Response (FZD6; FZD6, 0.1μM tracer): 0.99 | NanoBRET Fold Response (FZD6; FZD6, 1μM tracer): 0.93 | NanoBRET Fold Response (GALR3; GALR3, 0.1μM tracer): 1.02 | NanoBRET Fold Response (GALR3; GALR3, 1μM tracer): 1.13

N#CN=C(NCCCOc1cccc(CN2CCCCC2)c1)NCCNC(=O)CCOCCOCCOCCOCCNC(=O)CCc1ccc2n1[B-](F)(F)[N+]1=C(c3ccc[nH]3)C=CC1=C2 [Aminopotentidine-2-NB590]
NanoBRET Fold Response (FZD6; FZD6, tracer 0.1μM): 1.03 | NanoBRET Fold Response (FZD6; FZD6, tracer 1μM): 1.03 | NanoBRET Fold Response (GALR3; GALR3, tracer 0.1μM): 1.09 | NanoBRET Fold Response (GALR3; GALR3, tracer 1μM): 1.01

O=C(CCc1ccc2n1[B-](F)(F)[N+]1=C(c3ccc[nH]3)C=CC1=C2)NCc1ccc(C(=O)NCCOCCOCCNCC(O)COc2cccc3ccccc23)cc1 (stereo not shown) [Propranolol-3-NB590]
NanoBRET Fold Response (FZD6; FZD6, 0.1μM): 1.06 | NanoBRET Fold Response (FZD6; FZD6, 1μM): 1.01 | NanoBRET Fold Response (GALR3; GALR3, 0.1μM): 1.05 | NanoBRET Fold Response (GALR3; GALR3, 1μM): 0.91

CN(CCC=C1c2ccccc2CCc2ccccc21)C(=O)CCOCCOCCOCCOCCNC(=O)CCc1ccc2n1[B-](F)(F)[N+]1=C(c3ccc[nH]3)C=CC1=C2 [Amitriptyline-e-2-NB590]
NanoBRET Fold Response (FZD6; tracer at 1μM): 1.09
